The numbers were not newly measured in patent publication US6908953B2, “Polymerizable compositions based on epoxides” (ESPE Dental AG, priority 1998, dated 2005), which cites them from elsewhere.

Each structure is given as a SMILES string.

The conditions of data set [1]: prior-art epoxide monomers.
The conditions of data set [2]: in vitro tests, prior-art epoxide monomers.

With `O=C(OCC1CCC2OC2C1)C1CCC2OC2C1` (stereo not shown) [3,4-epoxycyclohexyl-methyl 3,4-epoxycyclohexanecarboxylate], the Cytotoxicity entry in data set [1] was “highly cytotoxic”. Besides, the Mutagenic properties result in data set [2] was “mutagenic properties”.

Take `O=C(CCCCC(=O)OC1CCC2OC2C1)OC1CCC2OC2C1` (stereo not shown) [bis(3,4-epoxycyclohexyl adipate)]: in data set [1], the Cytotoxicity result is listed as “highly cytotoxic”. Further, in data set [2], the Mutagenic properties entry is on record as “mutagenic properties”.
